Measurements taken from PMC8733726, “Dioctanoyl Ultrashort Tetrabasic β-Peptides Sensitize Multidrug-Resistant Gram-Negative Bacteria to Novobiocin and Rifampicin” (Frontiers in Microbiology, 2021).
≈ marks a conversion by molar mass, not a printed value. Where two headings read alike, the source gives them in different places.

Legend:
[1] = test system: MDR P. aeruginosa clinical isolates; assay: Resistance phenotype (MICs of antibiotics) of MDR clinical isolates; format: cell-based, Pseudomonas aeruginosa; conditions: Pseudomonas aeruginosa, read-out: MIC
[2] = test system: MDR E. coli clinical isolates; assay: as above; format: cell-based, Escherichia coli; conditions: Escherichia coli, read-out: MIC
[3] = test system: MDR K. pneumoniae clinical isolates; assay: as above; format: cell-based, Klebsiella pneumoniae; conditions: Klebsiella pneumoniae, read-out: MIC
[4] = test system: MDR E. cloacae clinical isolates; assay: as above; format: cell-based, Enterobacter cloacae; conditions: Enterobacter cloacae, 117029; read-out: MIC
[5] = test system: MDR A. baumannii clinical isolates; assay: as above; format: cell-based, Acinetobacter baumannii; conditions: Acinetobacter baumannii, read-out: MIC
[6] = test system: wild-type P. aeruginosa PAO1; assay: microbe, parasite or virus in culture; format: cell-based, Pseudomonas aeruginosa; conditions: PAO1; for MICcombo: antibiotic with dUSTBβP 3 at 8 μg/mL; for MIC: Pseudomonas aeruginosa, 18 h, antibiotic alone (Supplementary Table 7), read-out: MICantibiotic
Description: (§1) Overnight-grown bacterial culture diluted in saline to 0.5 McFarland turbidity was successively diluted 1:50 in MHB to achieve a final concentration of 5 × 10^5 CFU/mL for inoculation. The antibiotic and adjuvant were serially diluted 2-fold along the x-axis and y-axis, respectively, resulting in varying concentrations of both agents in each well. […] Confirmation of turbidity was done using an EMax Plus microplate reader (Molecular Devices, United States) at a wavelength of 590 nm. Wells comprising MHB alone or in the presence of bacterial cells were used as negative or positive controls, respectively. Fractional inhibitory concentration index (FICI) is determined by adding the FICs of both antibiotic and adjuvant. The FIC of the antibiotic is calculated by dividing the MIC of the antibiotic in the presence of the adjuvant by the MIC of the antibiotic alone. Similarly, the FIC of the adjuvant is calculated by dividing the MIC of the adjuvant in the presence of the antibiotic by the MIC of the adjuvant alone.

[7] = test system: wild-type E. coli ATCC 25922; assay: microbe, parasite or virus in culture; format: cell-based, Escherichia coli; conditions: ATCC 25922; for MICcombo: antibiotic with dUSTBβP 3 at 8 μg/mL; for MIC: Escherichia coli, ATCC25922, 18 h, antibiotic alone (Supplementary Table 7), read-out: MICantibiotic
Protocol: The adjuvant activities of dUSTBβPs were evaluated using checkerboard assay as previously described ([Berry et al., 2019]). Overnight-grown bacterial culture diluted in saline to 0.5 McFarland turbidity was successively diluted 1:50 in MHB to achieve a final concentration of 5 × 10^5 CFU/mL for inoculation. The antibiotic and adjuvant were serially diluted 2-fold along the x-axis and y-axis, respectively, resulting in varying concentrations of both agents in each well. Subsequently, the 96-well plate was incubated with equal volumes of bacterial inoculum at 37°C for 18 h. Confirmation of turbidity was done using an EMax Plus microplate reader (Molecular Devices, United States) at a wavelength of 590 nm. Wells comprising MHB alone or in the presence of bacterial cells were used as negative or positive controls, respectively. Fractional inhibitory concentration index (FICI) is determined by adding the FICs of both antibiotic and adjuvant. The FIC of the antibiotic is calculated by dividing the MIC of the antibiotic in the presence of the adjuvant by the MIC of the antibiotic alone. Similarly, the FIC of the adjuvant is calculated by dividing the MIC of the adjuvant in the presence of the antibiotic by the MIC of the adjuvant alone. FICI ≤ 0.5, 0.5 < x ≤ 4, and >4 were deemed synergistic, additive, and antagonistic, respectively ([Meletiadis et al., 2010]).

[8] = test system: wild-type A. baumannii ATCC 17978; assay: Checkerboard assay; format: cell-based, Acinetobacter baumannii; conditions: ATCC 17978; for MICcombo: antibiotic with dUSTBβP 3 at 8 μg/mL; for MIC: Acinetobacter baumannii, ATCC17978, 18 h, antibiotic alone (Supplementary Table 7), read-out: MICantibiotic
Description: as §1

MIC ([1]; 259-96196) [µg/mL]	MIC ([1]; 262-101856) [µg/mL]	MIC ([1]; 264-104354) [µg/mL]	MIC [1]; 91433 [µg/mL]	MIC ([2]; 94393 (mcr-1 +)) [µg/mL]	MIC ([2]; 94474 (mcr-1 +)) [µg/mL]	MIC [2]; 107115 [µg/mL]	MIC [3]; 113250 [µg/mL]	MIC [3]; 113254 [µg/mL]	MIC [3]; 116381 [µg/mL]	MIC [4] [µg/mL]	MIC [6] [µg/mL]	MICcombo [7] [µg/mL]	MIC [7] [µg/mL]	MICcombo [8] [µg/mL]	MIC [8] [µg/mL]	Structure (SMILES)	also measured
> 64	64 (≈ 115 µM)	> 64	> 64	–	–	–	–	–	–	–	–	–	–	–	–	CO/N=C(\C(=O)N[C@@H]1C(=O)N2C(C(=O)O)=C(CSc3nc(=O)c(=O)[nH]n3C)CS[C@H]12)c1csc(N)n1 [CTR, ceftriaxone]	–
32 (≈ 107 µM)	32 (≈ 107 µM)	32 (≈ 107 µM)	32 (≈ 107 µM)	0.25 (≈ 0.835 µM)	0.25 (≈ 0.835 µM)	8 (≈ 26.7 µM)	0.25 (≈ 0.835 µM)	0.12 (≈ 0.401 µM)	0.5 (≈ 1.67 µM)	0.25 (≈ 0.835 µM)	–	–	–	–	–	C[C@@H](O)[C@H]1C(=O)N2C(C(=O)O)=C(SCCN=CN)C[C@H]12 [IMI, imipenem]	MIC ([5]; AB027): 32 µg/mL (≈ 107 µM); MIC ([5]; AB031): 0.25 µg/mL (≈ 0.835 µM); MIC ([5]; LAC-4): < 1 µg/mL
–	–	–	–	–	–	–	–	–	–	–	128 (≈ 441 µM)	64	512	> 128	> 128	COc1cc(Cc2cnc(N)nc2N)cc(OC)c1OC [Trimethoprim]	MICcombo [6]: 32 µg/mL
> 1020	16 (≈ 38 µM)	16 (≈ 38 µM)	16 (≈ 38 µM)	–	–	–	–	–	–	–	–	–	–	–	–	C[C@@H](O)[C@H]1C(=O)N2C(C(=O)O)=C(S[C@@H]3CN[C@H](CNS(N)(=O)=O)C3)[C@H](C)[C@H]12 [DOR, doripenem]	MIC [1]; 114228: 8 µg/mL (≈ 19 µM)
–	–	–	–	–	–	–	–	–	–	–	32 (≈ 232 µM)	8	16	256	> 256	C[C@@H]1O[C@@H]1P(=O)(O)O [Fosfomycin]	MICcombo [6]: 2 µg/mL
–	–	–	–	–	–	–	–	–	–	–	256 (≈ 349 µM)	0.25	64	1	16	CC[C@H]1OC(=O)[C@H](C)[C@@H](O[C@H]2C[C@@](C)(OC)[C@@H](O)[C@H](C)O2)[C@H](C)[C@@H](O[C@@H]2O[C@H](C)C[C@H](N(C)C)[C@H]2O)[C@](C)(O)C[C@@H](C)C(=O)[C@H](C)[C@@H](O)[C@]1(C)O [Erythromycin]	–
> 32	> 32	> 32	> 32	≤ 0.03	≤ 0.03	> 32	≤ 0.03	≤ 0.03	0.12 (≈ 0.252 µM)	≤ 0.03	–	–	–	–	–	C[C@@H](O)[C@H]1C(=O)N2C(C(=O)O)=C(S[C@@H]3CN[C@H](C(=O)Nc4cccc(C(=O)O)c4)C3)[C@H](C)[C@H]12 [ETP, ertapenem]	–
64 (≈ 115 µM)	64 (≈ 115 µM)	64 (≈ 115 µM)	128 (≈ 230 µM)	4 (≈ 7.19 µM)	16 (≈ 28.7 µM)	4 (≈ 7.19 µM)	2 (≈ 3.59 µM)	4 (≈ 7.19 µM)	4 (≈ 7.19 µM)	4 (≈ 7.19 µM)	–	–	–	–	–	CN(C)c1cc(CNCC(C)(C)C)c(O)c2c1C[C@H]1C[C@H]3[C@H](N(C)C)C(O)=C(C(N)=O)C(=O)[C@@]3(O)C(O)=C1C2=O [OMC, omadacycline]	MIC [1]; 114228: 16 µg/mL (≈ 28.7 µM); MIC ([5]; AB027): 1 µg/mL (≈ 1.8 µM); MIC ([5]; AB031): 2 µg/mL (≈ 3.59 µM); MIC ([5]; LAC-4): 1 µg/mL (≈ 1.8 µM)
